The values below come from PubChem BioAssay (NCI).

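Exposure lasted 48 hours, with cells grown in 96-well plates and compounds tested at five concentrations. The concentration for full growth arrest is given as TGI.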

Holding throughout (assay): NCI-60 cell line screen, 48 h
The test system of experiment [1] is A549 NSCLC.
Experiment [2] relates to SR leukemia.
The test system of experiment [3] is HCT-116 colon.
Experiment [4] deals with DU-145 prostate.
Experiment [5] deals with NCI-H226 lung.
For experiment [6], the system named is MDA-N.
For experiment [7], the system named is CCRF-CEM leukemia.
Experiment [8] relates to SN12C renal.
The subject of experiment [9] is UACC-257 melanoma.
Experiment [10] deals with SF-295 CNS.
For experiment [11], the system named is OVCAR-5 ovarian.
Experiment [12] has as its system TK-10 renal.
Experiment [13] deals with SF-539 CNS.
The subject of experiment [14] is SW-620 colon.
Experiment [15] has as its system NCI-H23 lung.
Experiment [16] deals with SK-MEL-28 melanoma.

With `CCOC(=O)/C(=C\c1ccc(N(C)C)cc1)S(=O)(=O)C(F)(F)C(F)(F)C(F)(F)C(F)(F)F`, the TGI in [1], in [2], in experiment [3], in experiment [4], in experiment [5] and in [6] was more than 100 µM in each case. Moreover, the TGI in experiment [7], in [8], in experiment [9], in experiment [10], in [11] and in [12] was more than 100 µM in each case. The TGI in experiment [13], in experiment [14], in experiment [15] and in experiment [16] was more than 100 µM in each case.
`O=C1Sc2ccc(Br)cc2C(=O)Sc2ccccc21`: the TGI in [1] was more than 71.1 µM; in experiment [2] it was 4.13 µM; in experiment [3], 26.9 µM; in [4] it was 25.5 µM; in [5], 44.5 µM; in [6], 22.8 µM. In addition, the TGI in [7] came to 7.47 µM; in experiment [8], 34.8 µM; in experiment [9], 28.4 µM; in [10] it was 57.5 µM; in [11], 36.8 µM; in experiment [12], 38.3 µM. Besides, the TGI in experiment [13] was 26.4 µM; in experiment [14], 67.7 µM; in [15], 36 µM; in [16], 42.7 µM.
Regarding `Clc1nc(Cl)c(Cl)c(Cl)n1`, the TGI is 40.5 µM in experiment [1]; 14.6 µM in experiment [2]; 38.2 µM in experiment [3]; 31.7 µM in experiment [4]; 42.8 µM in [5]; 37.9 µM in [6]. Moreover, the TGI in [7] was 15.2 µM; in [8], 42.7 µM; in experiment [9], 31.1 µM; in experiment [10], 36.9 µM; in experiment [11], 43.1 µM; in experiment [12], 37.3 µM. Moreover, the TGI in experiment [13] was 47.9 µM; in [14] it was 20.1 µM; in experiment [15] it was 40.3 µM; in experiment [16], 41.3 µM.
In the case of `Cc1ccc(S(=O)(=O)/N=C(\NN)Nc2ccc(Cl)cc2)cc1`, the TGI in experiment [1], in experiment [2], in experiment [3], in experiment [4], in experiment [5] and in experiment [6] was more than 100 µM throughout. In addition, the TGI in experiment [7], in [8], in experiment [9], in experiment [10], in experiment [11] and in experiment [12] was more than 100 µM throughout. In addition, the TGI in experiment [13], in [14], in [15] and in experiment [16] was more than 100 µM each time.
`COC(=O)C(C)(N=Cc1ccccc1)c1ccccc1` (centres undefined): the TGI in experiment [1], in [2], in experiment [3], in experiment [4], in experiment [5] and in experiment [6] was more than 100 µM in each case. The TGI in [7], in experiment [8], in experiment [9], in experiment [10], in experiment [11] and in experiment [12] was more than 100 µM throughout. The TGI in experiment [13], in experiment [14], in [15] and in [16] was more than 100 µM throughout.
Consider `CC1(C)N=C(C(N)=O)c2ncn(CCO)c2N1`, for which the TGI in experiment [1], in [2], in experiment [3], in experiment [4], in [5] and in experiment [6] was more than 100 µM in each case. Further, the TGI in experiment [7], in experiment [8], in experiment [9], in experiment [10], in experiment [11] and in experiment [12] was more than 100 µM throughout. The TGI in experiment [13], in [14], in experiment [15] and in [16] was more than 100 µM each time.
Turning to `COC(=O)c1ccccc1C#CC#Cc1ccccc1C(=O)OC`, the TGI in [1], in experiment [2], in [3], in experiment [4], in experiment [5] and in [6] was more than 10 µM in each case. Moreover, the TGI in experiment [7], in [8], in [9], in experiment [10], in experiment [11] and in experiment [12] was more than 10 µM in each case. Besides, the TGI in experiment [13], in [14], in experiment [15] and in experiment [16] was more than 10 µM each time.
For `Clc1cc2c(c(CSC3=NCN(CC4CC4)CN3)c1)OCOC2`, the TGI is 77.6 µM in [1]; 42.2 µM in experiment [2]; 42.8 µM in experiment [3]; more than 100 µM in [4]; 48.9 µM in experiment [5]; 38.6 µM in experiment [6]. The TGI in experiment [7] was 27.2 µM; in experiment [8], more than 100 µM; in experiment [9], 33.1 µM; in experiment [10] it was more than 100 µM; in [11] it was 48.9 µM; in [12] it was 40.8 µM. The TGI worked out at 43.4 µM in experiment [13], 65.1 µM in [14], 39.3 µM in experiment [15] and 38.3 µM in experiment [16].
Turning to `COc1cc(OC)c2c(O)c3c(cc2c1)CC(C)(C)CC3=O`, the TGI in [1], in [2], in experiment [3], in experiment [4], in [5] and in experiment [6] was more than 100 µM each time. The TGI in [7], in experiment [8], in [9], in experiment [10], in experiment [11] and in [12] was more than 100 µM each time. In addition, the TGI in experiment [13], in experiment [14], in [15] and in experiment [16] was more than 100 µM in each case.
